# Where two headings read alike, the source gives them in different places.
# Key:
# [1] = Equilibrium solubility in pH buffers and biorelevant media; format: physicochemical
# Protocol: After incubation of 2 h, 1 ml aliquot of each sample was withdrawn from the tube. The samples were filtered using a 0.22 μm filter, the first 0.8 ml was discarded, and the remaining 0.2 ml was analyzed by the HPLC. The specific experiments containing different conditions are as follows: • i) Solubility testing in simulated fasted and fed media
# Specifically, solubility media were prepared using different phosphate buffers. Media pH was adjusted to the required value (Table 1, target value) using KOH or H3PO4, which were equal to the pH value of gastrointestinal tract compartment in a fasted and fed state in humans, respectively. • ii) Biorelevant solubility
# [2] = cited from earlier work
# [3] = tested on: Caco-2 cell; design: method as in Food and Drug Administration, 2009; conditions: ref Food and Drug Administration, 2009; cited from earlier work
# [4] = tested on: BCRP1; design: method as in Minocha et al., 2012; Boudou-Rouquette et al., 2016; conditions: in vitro; ref Minocha et al., 2012; Boudou-Rouquette et al., 2016; cited from earlier work
# [5] = tested on: OCT2; design: method as in Sauzay et al., 2016; conditions: ref Sauzay et al., 2016; cited from earlier work
# [6] = tested on: MATE1; design: method as in Sauzay et al., 2016; conditions: ref Sauzay et al., 2016; cited from earlier work
# [7] = tested on: MATE2-K; design: method as in Sauzay et al., 2016; conditions: ref Sauzay et al., 2016; cited from earlier work
# [8] = tested on: P-gp; design: method as in Minocha et al., 2012; Boudou-Rouquette et al., 2016; conditions: in vitro; ref Minocha et al., 2012; Boudou-Rouquette et al., 2016; cited from earlier work
# [9] = ref Fink, 2020; cited from earlier work
# [10] = tested on: CYP3A4; conditions: ref Food and Drug Administration, 2009; Yamada et al., 2020; cited from earlier work
structure (smiles),measurement,setting,value
"Cc1ccc(Nc2nccc(N(C)c3ccc4c(C)n(C)nc4c3)n2)cc1S(N)(=O)=O [PAZ, pazopanib]",solubility at 2 h,"[1]; 37 °C, pH 1.3, fassgf or other biorelevant, thermodynamic from solid, FaSSGF-PH1.3, read-out: Solubility (mean ± SD) at fasted state",436.1 ± 1 µg/mL
same,solubility at 2 h,"[1]; 37 °C, pH 4.5, fassgf or other biorelevant, thermodynamic from solid, FEDGAS-PH4.5, read-out: Solubility (mean ± SD) at fed state",147 ± 1.9 µg/mL
same,solubility at 2 h,"[1]; 37 °C, pH 5.8, thermodynamic from solid, FeSSIF-V2-PH5.8, read-out: Solubility (mean ± SD) at fed state",6.5 ± 1.3 µg/mL
same,solubility at 2 h,"[1]; FEGGAS medium, 37 °C, fassgf or other biorelevant, thermodynamic from solid, fed state, used for food simulation, read-out: Mean value of the three solubility in the FEGGAS medium",167 µg/mL
same,Solubility (mean ± SD) at fed state,[1]; PH7.0,N (Not detected (below the detection limit))
same,Solubility (mean ± SD) at fed state,[1]; PH7.5,N (Not detected (below the detection limit))
same,solubility at 2 h,"[1]; pH 3, FEDGAS-PH3.0, read-out: Solubility (mean ± SD) at fed state",322.7 ± 2.6 µg/mL
same,solubility at 2 h,"[1]; pH 4.78, FaSSGF-PH4.78 (elevated gastric pH after esomeprazole), read-out: Solubility (mean ± SD) at fasted state",46.1 ± 3.4 µg/mL
same,solubility at 2 h,"[1]; pH 4.9, FEDGAS-PH4.9, read-out: Solubility (mean ± SD) at fed state",40 ± 0.7 µg/mL
same,solubility at 2 h,"[1]; pH 6.5, FaSSIF-V2-PH6.5, read-out: Solubility (mean ± SD) at fasted state",0.63 ± 0.18 µg/mL
same,Solubility,[1]; pH ≥ 7.0,cannot even be detected
same,solubility at 2 h,"[1]; phosphate buffer, 37 °C, pH 3, aqueous buffer, thermodynamic from solid, PH3.0, read-out: Solubility (mean ± SD) at fasted state",391 ± 4.6 µg/mL
same,solubility at 2 h,"[1]; phosphate buffer, 37 °C, pH 4.5, aqueous buffer, thermodynamic from solid, PH4.5, read-out: Solubility (mean ± SD) at fasted state",68.3 ± 3.3 µg/mL
same,solubility at 2 h,"[1]; phosphate buffer, 37 °C, pH 5, aqueous buffer, thermodynamic from solid, PH5.0, read-out: Solubility (mean ± SD) at fasted state",24.2 ± 2.3 µg/mL
same,solubility at 2 h,"[1]; phosphate buffer, 37 °C, pH 6, aqueous buffer, thermodynamic from solid, PH6.0, read-out: Solubility (mean ± SD) at fasted state",7.6 ± 0.6 µg/mL
same,solubility at 2 h,"[1]; phosphate buffer, 37 °C, pH 7, aqueous buffer, thermodynamic from solid, PH7.0, read-out: Solubility (mean ± SD) at fasted state",< 0.27 µg/mL
same,solubility at 2 h,"[1]; phosphate buffer, 37 °C, pH 7.5, aqueous buffer, thermodynamic from solid, PH7.5, read-out: Solubility (mean ± SD) at fasted state",< 0.27 µg/mL
same,solubility at 2 h,"[1]; phosphate buffer, pH 2, PH2.0, read-out: Solubility (mean ± SD) at fasted state",263.9 ± 1.1 µg/mL
same,Increase in AUC of PAZ,"[2]; co-administration with ketoconazole, ref Van Leeuwen et al., 2014",approximately 66%
same,Decrease in AUC of PAZ,"[2]; combined with carbamazepine, ref Van Leeuwen et al., 2014",30%
same,Reduction of oral bioavailability,"[2]; concomitant drugs that increase gastric pH, ref Budha et al., 2012",approximately 39%
same,Increase in AUC of PAZ,"[2]; with lapatinib, ref Van Leeuwen et al., 2014",59%
same,"Papp, Caco-2 cell permeability",[3],16.9 ✕10^−6 cm⋅s^−1
same,Substrate for BCRP1,[4],moderate substrate
same,Ki,[5],3 µM
same,Ki,[6],1.7 µM
same,Ki,[7],3.3 µM
same,Substrate for efflux transporter P-gp,[8],weak substrate
same,Permeability,[9],highly permeable
same,Inhibitor of CYP3A4,[10],weak inhibitor

# Reference: article PMC9510668 (Frontiers in Pharmacology, 2022)
